# Reference: patent US12678446B2 (PFIZER INC., priority 2020, dated 2026)
# Read-outs that look alike come from different tables or passages of the source.
# Key:
# [1] = test system: RSV (RSV A2 ECACC, 0709161v); assay: RSV plaque reduction assay; assay type: cell-based, respiratory syncytial virus; details: mean of at least two experiments unless noted (n = 1)
# Method in brief: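 Hep-G2 monolayers infected with 100 PFU/well RSV A2 premixed with eight serial compound dilutions (2 h, 37° C.), then kept 2 days under CMC overlay with compound in DMEM/2% FBS. Plaques immunostained (HRP/TrueBlue) and counted; % infection versus virus control gives EC50, mean of at least two experiments, rounded.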
# Hep-G2 cells = assay: cell toxicity CC50; assay type: cell-based; details: mean of at least two experiments, read-out: Cell Cytotoxicity CC50
# [2] = Rat pharmacokinetics in vivo (IV 1 mg/kg, PO 10 mg/kg); set-up: species or system Male rats [Sprague Dawley (SD)]; details: male SD rat; for AUC(0-t): read-out: PO AUClast; for Cmax: PO 10 mg/kg study; for concentration at 8 h: read-out: C 8 h; for F: PO 10 mg/kg vs IV 1 mg/kg
# Description: The pharmacokinetics of compounds were studied in vivo in rats at doses of 1 mg/kg (IV) and 10 mg/kg (PO).
# Male rats [Sprague Dawley (SD)] surgically prepared with a jugular vein cannula were treated with experimental compounds via intravenous administration (IV; n=3; 1 mg/kg) or oral administration (PO; n=3; 10 mg/kg). Compounds were formulated as a solution in 40:60 dimethylacetamide:saline (IV administration) and a solution of 10% DMSO, 10% cremaphor in water (80%) (PO administration). […] Serial blood samples were collected via the cannula at 0.02, 0.08, 0.25, 0.5, 1, 2, 4, 6, 8 and 24 h post IV dosing of compound, and at 0.08, 0.25, 0.5, 1, 2, 4, 6, 8 and 24 h post oral dosing of compound, and plasma was prepared by centrifugation and stored immediately at −80° C. Samples were subsequently thawed, prepared for analysis by protein precipitation with acetonitrile, and analysed by tandem LCMS using electrospray ionisation using a matrix-matched calibration curve. PK parameters were calculated from the resulting data.
# cell toxicity CC50 = assay type: cell-based; details: human; Hep-G2 cells; mean of at least two experiments; read-out: Cell Cytotoxicity CC50
# [3] = Liver microsomal stability, rat; assay type: in vitro ADME; details: rat liver microsomes 0.5 mg/mL, 1 μM compound, NADPH, up to 45 min; for half-life at 1 μM: pooled liver microsomes, pH 7.4, read-out: Liver Microsomal Stability t½
# Description: (§1) Compounds were subjected to the following assays to investigate liver microsomal stability and hepatocyte stability.
# (§2) Pooled liver microsomes were purchased from a reputable commercial supplier and stored at −80° C. prior to use. Microsomes (final protein concentration 0.5 mg/mL), 0.1 M phosphate buffer pH 7.4 and test compound (final substrate concentration 1 μM; final DMSO concentration 0.25%) were pre-incubated at 37° C. prior to the addition of NADPH (final concentration 1 mM) to initiate the reaction. The final incubation volume was 50 μL. A control incubation was included for each compound tested where 0.1 M phosphate buffer pH 7.4 was added instead of NADPH (minus NADPH). Two control compounds were included with each species. All incubations were performed singularly for each test compound. Each compound was incubated for 0, 5, 15, 30 and 45 min. The control (minus NADPH) was incubated for 45 min only. The reactions were stopped by transferring incubate into acetonitrile at the appropriate time points, in a 1:3 ratio. The termination plates are centrifuged at 3,000 rpm for 20 min at 4° C. to precipitate the protein. Following protein precipitation, the sample supernatants were combined in cassettes of up to 4 compounds, internal standard added, and samples analysed by LC-MS/MS. From a plot of ln peak area ratio (compound peak area/internal standard peak area) against time, the gradient of the line was determined. Subsequently, half-life (t1/2) and intrinsic clearance (CLint) were calculated.
# [4] = Liver microsomal stability, dog; assay type: in vitro ADME; details: dog liver microsomes 0.5 mg/mL, 1 μM compound, NADPH, up to 45 min; for half-life at 1 μM: pooled liver microsomes, pH 7.4, read-out: Liver Microsomal Stability t½
# Description: as §1, §2
# [5] = Hepatocyte stability, rat; assay type: in vitro ADME; details: rat hepatocytes 0.5×10^6 viable cells/mL, 3 μM compound, up to 60 min; for half-life at 3 μM: cryopreserved pooled hepatocytes, read-out: Liver Hepatocyte Stability t½
# Description: as §1
# (§3) Hepatocyte Incubation: Experimental Procedure
# (§4) Cryopreserved pooled hepatocytes were purchased from a reputable commercial supplier and stored in liquid nitrogen prior to use. Williams E media supplemented with 2 mM L-glutamine and 25 mM HEPES and test compound (final substrate concentration 3 μM; final DMSO concentration 0.25%) are pre-incubated at 37° C. prior to the addition of a suspension of cryopreserved hepatocytes (final cell density 0.5×10^6 viable cells/mL in Williams E media supplemented with 2 mM L-glutamine and 25 mM HEPES) to initiate the reaction. The final incubation volume is 500 μL. Two control compounds were included with each species, alongside appropriate vehicle control. The reactions are stopped by transferring 50 μL of incubate to 100 μL acetonitrile containing internal standard at the appropriate time points. Samples were removed at 6 time points (0, 5, 15, 30, 45 and 60 min) over the course of a 60 min experiment. The termination plates are centrifuged at 2500 rpm at 4° C. for 30 min to precipitate the protein. Following protein precipitation, the sample supernatants were combined in cassettes of up to 4 compounds and analysed using generic LC-MS/MS conditions. From a plot of ln peak area ratio (compound peak area/internal standard peak area) against time, the gradient of the line is determined. Subsequently, half-life (t½) and intrinsic clearance (CLint) were calculated.
# [6] = Hepatocyte stability, dog; assay type: in vitro ADME; details: dog hepatocytes 0.5×10^6 viable cells/mL, 3 μM compound, up to 60 min; for half-life at 3 μM: cryopreserved pooled hepatocytes, read-out: Liver Hepatocyte Stability t½
# Description: as §1, §3, §4
# [7] = Hepatocyte stability, human; assay type: in vitro ADME; details: human hepatocytes 0.5×10^6 viable cells/mL, 3 μM compound, up to 60 min; for half-life at 3 μM: cryopreserved pooled hepatocytes, read-out: Liver Hepatocyte Stability t½
# Description: as §1, §3, §4
# [8] = Liver microsomal stability, human; assay type: in vitro ADME; details: human liver microsomes 0.5 mg/mL, 1 μM compound, NADPH, up to 45 min; for half-life at 1 μM: pooled liver microsomes, pH 7.4, read-out: Liver Microsomal Stability t½
# Description: as §1, §2
# [9] = read-out: RSV A2 Plaque EC50, RSV A2 in Hep-G2 cells
# [10] = human respiratory syncytial virus, HepG2, read-out: RSV A2 Plaque EC50, RSV A2 in Hep-G2 cells
# [11] = Sprague Dawley, plasma, IV 1 mg/kg
# [12] = Sprague Dawley, plasma, IV 1 mg/kg, read-out: IV t½ (converted)
# [13] = Sprague Dawley, plasma, IV 1 mg/kg, read-out: Vd
# [14] = Sprague Dawley, plasma, PO 10 mg/kg
# [15] = Sprague Dawley, plasma, PO 10 mg/kg, read-out: PO t½ (converted)
# [16] = Sprague Dawley, plasma, IV 1 mg/kg, read-out: Cmax
# [17] = RSV A2 in Hep-G2 cells, read-out: RSV A2 Plaque EC50
Compound,CC50 (Hep-G2 cells) [nM],"EC50 [1, 10] [nM]","clearance [2, 11] [mL/min/kg]","half-life [2, 12] [h]","Vd [2, 13] [L/kg]","AUC(0-t) [2, 14] [ng·h/mL]","half-life [2, 15] [h]","Cmax [2, 16] [ng/mL]","concentration at 8 h ([2]; Sprague Dawley, plasma at 8 h) [ng/mL]",F [2] [%],CC50 (cell toxicity CC50) [nM],half-life at 1 μM [3] [h],half-life at 1 μM [4] [h],half-life at 3 μM [5] [h],half-life at 3 μM [6] [h],half-life at 3 μM [7] [h],half-life at 1 μM [8] [h],"EC50 [1, 17] [nM]",also measured
"O=C(N[C@H]1N=C(c2ccccc2)c2ccccc2NC1=O)c1c(-c2c(F)cccc2F)nn2c1OC(CO)CC2 (single isomer, unassigned) [Example 188-2, (5S*)-2-(2,6-Difluorophenyl)-5-(hydroxymethyl)-N-[(3S)-2-oxo-5-phenyl-1,3-dihydro-1,4-benzodiazepin-3-yl]-6,7-dihydro-5H-pyrazolo[5,1-b][1,3]oxazine-3-carboxamide]",> 25000,–,–,–,–,–,–,–,–,–,–,–,–,–,–,–,–,–,"EC50 [1, 9]: 281 nM"
"C[C@@H]1CCn2nc(-c3ccccc3F)c(C(=O)N[C@H]3N=C(c4ccccc4)c4cccc(F)c4NC3=O)c2O1 [Example 25, (5R)-N-[(3S)-9-fluoro-2-oxo-5-phenyl-1,3-dihydro-1,4-benzodiazepin-3-yl]-2-(2-fluorophenyl)-5-methyl-6,7-dihydro-5H-pyrazolo[5,1-b][1,3]oxazine-3-carboxamide]",–,24,4.7,2.2,0.6,14900,3.4,1880,812,40.3,> 25000,> 2.33,> 2.33,1.8,> 3.1,4.73,16.8,–,–
"2-[2-Fluoro-4- (hydroxymethyl)phe- nyl]-N-[(3S)-9- fluoro-2-oxo-5- phenyl-1,3-dihydro- 1,4-benzodiazepin-3- yl]-6,7-dihydro-5H- pyrazolo[5,1- b][1,3]oxazine-3- carboxamide [Example 134]",> 25000,–,–,–,–,–,–,–,–,–,–,–,–,–,–,–,–,83,–
"C[C@H]1CCn2nc(-c3ccccc3F)c(C(=O)N[C@H]3N=C(c4ccccc4)c4cccc(F)c4NC3=O)c2O1 [Example 27, (5S)-N-[(3S)-9-fluoro-2-oxo-5-phenyl-1,3-dihydro-1,4-benzodiazepin-3-yl]-2-(2-fluorophenyl)-5-methyl-6,7-dihydro-5H-pyrazolo[5,1-b][1,3]oxazine-3-carboxamide]",–,20,24.9,0.72,0.9,3140,2.8,960,75.9,49.6,> 25000,1.4,7.72,8.08,> 3.1,> 3.1,2.25,–,–
"O=C(N[C@H]1N=C(c2ccccc2)c2cccc(F)c2NC1=O)c1c(-c2c(F)cccc2F)nn2c1OCC(CO)C2 (single isomer, unassigned) [Example 129-2, (6S*)-2-(2,6-Difluorophenyl)-N-[(3S)-9-fluoro-2-oxo-5-phenyl-1,3-dihydro-1,4-benzodiazepin-3-yl]-6-(hydroxymethyl)-6,7-dihydro-5H-pyrazolo[5,1-b][1,3]oxazine-3-carboxamide]",> 25000,–,–,–,–,–,–,–,–,–,–,–,–,–,–,–,–,–,"EC50 [1, 9]: 73 nM"
"(5R)-2-[2-Fluoro-4- (hydroxymethyl)phe- nyl]-N-[(3S)-9- fluoro-2-oxo-5- phenyl-1,3-dihydro- 1,4-benzodiazepin-3- yl]-5-methyl-6,7- dihydro-5H- pyrazolo[5,1- b][1,3]oxazine-3- carboxamide [Example 153]",> 25000,–,–,–,–,–,–,–,–,–,–,–,–,–,–,–,–,63,–
"(5R)-2-(3-Fluoropyridin-4-yl)-5-methyl-N-[(3S)-9-fluoro-2-oxo-5-phenyl-1,3-dihydro-1,4-benzodiazepin-3-yl]-6,7-dihydro-5H-pyrazolo[5,1-b][1,3]oxazine-3-carboxamide [Example 51]",> 25000,–,–,–,–,–,–,–,–,44.3,–,–,–,–,–,–,–,80,Cl ([2]; IV 1 mg/kg): 46.4 mL/min/kg; IV t½ ([2]; IV 1 mg/kg): 0.48 h; Vd ([2]; IV 1 mg/kg): 1.0 L/kg; PO AUClast ([2]; PO 10 mg/kg): 1582 ng·h/mL; PO t½ ([2]; PO 10 mg/kg): 1.1 h; Cmax ([2]; IV 1 mg/kg): 730 ng/mL; C 8 h ([2]; plasma at 8 h): 7.6 ng/mL; Liver Microsomal Stability t½ [3]: 1.1 h; Liver Microsomal Stability t½ [4]: > 2.33 h; Liver Hepatocyte Stability t½ [5]: 1.88 h; Liver Hepatocyte Stability t½ [6]: 16.4 h; Liver Hepatocyte Stability t½ [7]: 1.47 h; Liver Microsomal Stability t½ [8]: 1.04 h
"CCc1ccc(-c2nn3c(c2C(=O)N[C@H]2N=C(c4ccccc4)c4cccc(F)c4NC2=O)OCCC3)cn1 [Example 106, 2-(6-Ethylpyridin-3-yl)-N-[(3S)-9-fluoro-2-oxo-5-phenyl-1,3-dihydro-1,4-benzodiazepin-3-yl]-6,7-dihydro-5H-pyrazolo[5,1-b][1,3]oxazine-3-carboxamide]",–,48,14.6,1.2,0.7,5690,3.6,1030,271,59.4,> 25000,0.815,1.82,1.59,2,> 3.1,3.1,–,–
